“Also recorded” adds a separate entry of the source.
Assays:
Lewis rats = assay: Blood Lymphocyte Reduction (BLR) Assay in rat; assay type: in vivo; conditions: for Percent reduction vs. control at 24 hr post-dose (blood lymphocytes): rat, oral, 0.1 mg/kg
Procedure: (§1) Blood Lymphocyte Reduction (BLR) Assay in Rodent:
(§2) Lewis rats or BALB/c mice were dosed orally with vehicle alone (polyethylene glycol 300, “PEG300”) or with test compounds. Compounds were dosed as a solution or suspension in the vehicle, adjusted to reflect the free amount of test article in the event that salt forms are utilized. Blood was drawn at 24 hr and blood lymphocyte counts were determined on an ADVIA 120 Hematology Analyzer (Siemens Healthcare Diagnostics). The results were measured as a reduction in the percentage of circulating lymphocytes as compared to the vehicle treated group at the time of measurement. The results represent the average results of all animals within each treatment group (n=2-4).

Male Lewis rats = assay: Rat Adjuvant Induced Arthritis Assay (AA); assay type: in vivo; conditions: prophylactic oral dosing regimen
Procedure: Rat Adjuvant Induced Arthritis Assay (AA)
The rat adjuvant-induced arthritis model is an animal model for human rheumatoid arthritis.
Male Lewis rats (150-175 g; Harlan, n=8 treatment group) were immunized at the base of the tail with 100 μl of 10 mg/ml freshly ground Mycobacterium butyricum (Difco Laboratories) in incomplete Freund's adjuvant (sigma). Animals were dosed once daily with the test article (as a solution or suspension in the vehicle) or vehicle alone (polyethylene glycol 300, “PEG300”) starting from the day of immunization. The volumes of their hind paws were measured in a water displacement plethysmometer (Ugo Basile, Italy). The baseline paw measurements were taken before onset of the disease (between day 7 to day 10). The paw measurements were then taken three times a week until the end of the study on day 20 to 21. All procedures involving animals were reviewed and approved by the Institutional Animal Care Use Committee.

Female Lewis rats = assay: Rat Experimental Autoimmune Encephalomyelitis (EAE); assay type: in vivo; conditions: prophylactic oral dosing regimen
Procedure: Rat Experimental Autoimmune Encephalomyelitis (EAE)
Female Lewis rats (150-200 g; Harlan) were immunized at the base of the tail with 0.1 ml of a complete Freund's adjuvant emulsion containing 0.5 mg/mL guinea pig myelin basic protein (Genemed Synthesis) and 2 mg/mL Mycobacterium butyricum (Difco). Beginning on Day 7, rats (n=11/group) were scored individually at least 3×/wk according to the following scheme:
Average clinical scores were calculated for each treatment group on each day of assessment.

C57BL/6 mice = assay: Mouse Experimental Autoimmune Encephalomyelitis Assay (EAE); assay type: in vivo; conditions: for inhibition of disease progression as measured by clinical scores: C57Bl/6 mice, prophylactic oral dosing regimen; for Clinical scores on day 22, Mean: C57BL/6 mice, prophylactic, vehicle mean 4.1
Procedure: Mouse Experimental Autoimmune Encephalomyelitis Assay (EAE)
Mice (C57BL/6 female, 6-8 weeks of age, Charles River, n=10 treatment group) were immunized subcutaneously with 150 μg MOG35-55 emulsified 1:1 with incomplete Freund's adjuvant (sigma) supplemented with 150 μg Mycobacterium tuberculosis H37RA (Difco Laboratories). 400 ng of pertussis toxin (CalBiochem) was injected intraperitoneally on the day of immunization and 2 day later. Clinical scoring and body weight were taken 3 times per week. Clinical scoring system: 0.5: partial tail weakness; 1: limp tail or waddling gait with tail tonicity; 1.5: waddling gait with partial tail weakness; 2: waddling gait with limp tail (ataxia); 2.5: ataxia with partial limb paralysis; 3: full paralysis of one limb; 3.5: full paralysis of one limbs with partial paralysis of a second limb; 4: full paralysis of two limbs; 4.5: moribund; 5: death. Mean clinical score was calculated by averaging the scores of all mice in each group. All procedures involving animals were reviewed and approved by the Institutional Animal Care Use Committee.

BALB/c mice = assay: Blood Lymphocyte Reduction (BLR) Assay in mouse; assay type: in vivo
Procedure: as §1, §2

Male MRL/lpr mice = assay: MRL/lpr Lupus Model (anti-dsDNA antibody titers, kidney histology); assay type: in vivo, mouse; conditions: for Anti-dsDNA antibody titers (23 weeks of age) (Mean): ratio to pooled MRL/lpr immune serum titer; for Kidney Histology (nephritis) 23 weeks of age (Mean): total score, highest possible 36
Procedure: MRL/lpr is a spontaneous model of lupus. Male MRL/lpr mice (Jackson Laboratory) at the age of 12-14 weeks were enrolled for the study (N=12). Mice were dosed p.o. daily with vehicle (18.4% (w/v) hydroxypropyl-b-cyclodextrin in 13.8 mM citric acid) or with Example 681 at 0.06, 0.3, 1.5 mg/kg. Mice were bled every other week for anti-dsDNA antibodies measured by ELISA using pooled serum from diseased MRL/lpr mice as a positive comparator in each assay. The data were expressed in arbitrary units as a ratio of the titer of the test serum to the titer of the pooled MRL/lpr immune serum.
At the end of study, one kidney was collected into 10% neutral buffered formalin and ZincTris fixatives. Fixed tissues were processed into paraffin blocks, sectioned at 3p m, and stained with H&E or PASH. Kidney sections were graded using following criteria: Glomerular Damage: 1. Mesangial matrix thickening, cell proliferation, 2. Crescent formation, cellular deposits/casts in Bowman's space, 3. Cellular infiltration, mononuclear cells in glomerular tufts, 4. Fibrosis of Bowman's capsule. Tubular damage: 1. Infiltration of mononuclear cells, 2. Severity of tubular damage, 3. Protein casts. Tubulo-interstitial damage: 1. Fibrosis, 2. Infiltration of mononuclear cells. Each subcategory was assigned a score from 0-4, with the scores for glomerular indices representing the mean from 20 glomeruli per kidney. The total score for each mouse was the sum of the above 9 subcategories, with the highest possible score=36.

## COCCCCCC1CCc2cc([C@@H]3CC[C@](N)(CO)C3)ccc2C1 (single isomer, unassigned) [Example 674]
Lewis rats
  Percent reduction vs. control at 24 hr post-dose (blood lymphocytes): 30%

## COCCCCCC1CCc2cc([C@@H]3CC[C@](N)(CO)C3)ccc2C1 (single isomer, unassigned) [Example 675]
Lewis rats
  Percent reduction vs. control at 24 hr post-dose (blood lymphocytes): 63%

## COCCCCC[C@H]1CCc2cc([C@H]3CC[C@](N)(CO)C3)ccc2C1 [Example 672, ((1R,3S)-1-amino-3-((S)-6-(5-methoxypentyl)-5,6,7,8-tetrahydronaphthalen-2-yl)cyclopentyl)methanol]
Male Lewis rats
  inhibition of disease progression as measured by reduced paw swelling: showed inhibition of disease progression

## CCOCCC[C@H]1CCc2cc([C@H]3CC[C@](N)(CO)C3)ccc2C1 [Example 678, ((1R,3S)-1-amino-3-((R)-6-(3-ethoxypropyl)-5,6,7,8-tetrahydronaphthalen-2-yl)cyclopentyl)methanol]
Lewis rats
  Percent reduction vs. control at 24 hr post-dose (blood lymphocytes): 16%

## CCOCCC[C@@H]1CCc2cc([C@H]3CC[C@](N)(CO)C3)ccc2C1 [Example 679, ((1R,3S)-1-amino-3-((S)-6-(3-ethoxypropyl)-5,6,7,8-tetrahydronaphthalen-2-yl)cyclopentyl)methanol]
Male Lewis rats
  inhibition of disease progression as measured by reduced paw swelling: showed inhibition of disease progression
Lewis rats
  Percent reduction vs. control at 24 hr post-dose (blood lymphocytes): 65%
Female Lewis rats
  inhibition of disease progression as measured by reduced clinical scores: showed inhibition of disease progression
C57BL/6 mice
  inhibition of disease progression as measured by clinical scores: showed inhibition of disease progression; also recorded: inhibit disease progression

## COc1ccccc1CC[C@H]1CCc2cc([C@H]3CC[C@](N)(CO)C3)ccc2C1 [Example 682, ((1R,3S)-1-amino-3-((R)-6-(2-methoxyphenethyl)-5,6,7,8-tetrahydronaphthalen-2-yl)cyclopentyl)methanol]
Lewis rats
  Percent reduction vs. control at 24 hr post-dose (blood lymphocytes): 17%

## ((1R,3S)-1-amino-3-((S)-6-(2-methoxyphenethyl)-5,6,7,8-tetrahydronaphthalen-2-yl)cyclopentyl)methanol [Example 681]
BALB/c mice; mice, 0.5 mg/kg oral, 24 hours post dose
  lymphocyte reduction: 85%
BALB/c mice; mouse, oral, 0.5 mg/kg, 24 hr post-dose
  Mouse Blood Lymphocyte Reduction Assay at 24 hr post-dose Percent reduction vs. control: 85%
Lewis rats
  Percent reduction vs. control at 24 hr post-dose (blood lymphocytes): 53%
Lewis rats; rodent BLR assay, 0.1 mg/kg oral, 24 hours post-dose, versus vehicle group
  lymphocyte reduction: 53%
C57BL/6 mice; 0.1 mg/kg oral
  Clinical scores on day 22, Mean: 3.1
C57BL/6 mice; 0.5 mg/kg oral
  Clinical scores on day 22, Mean: 1.1
C57BL/6 mice; 2 mg/kg oral
  Clinical scores on day 22, Mean: 0.8
C57BL/6 mice
  inhibition of disease progression as measured by clinical scores: showed inhibition of disease progression; also recorded: inhibit disease progression
Male MRL/lpr mice; 0.06 mg/kg p.o. daily
  Anti-dsDNA antibody titers (23 weeks of age) (Mean): 1.861 arbitrary units
  Kidney Histology (nephritis) 23 weeks of age (Mean): 10.13
Male MRL/lpr mice; 0.3 mg/kg p.o. daily
  Anti-dsDNA antibody titers (23 weeks of age) (Mean): 0.978 arbitrary units
  Kidney Histology (nephritis) 23 weeks of age (Mean): 10.00
Male MRL/lpr mice; 1.5 mg/kg p.o. daily
  Anti-dsDNA antibody titers (23 weeks of age) (Mean): 1.023 arbitrary units
  Kidney Histology (nephritis) 23 weeks of age (Mean): 12.63
Male MRL/lpr mice; p.o. daily
  inhibition of disease progression as measured by anti-dsDNA titers: showed inhibition of disease progression
  inhibition of disease progression as measured by kidney histology: showed inhibition of disease progression

From patent publication US11701373B2, “Substituted bicyclic compounds” (BRISTOL-MYERS SQUIBB COMPANY, priority 2014, dated 2023)
